According to patent US20250360087A1, “COMPOSITIONS COMPRISING LIPID DROPLETS ENCAPSULATED WITHIN POLYSACCHARIDE WALLS AND USES THEREOF” (UNIVERSITY OF SOUTH AUSTRALIA, priority 2022, published 2025):

Assays:
S. aureus ATCC 25923 = assay: Minimum inhibitory concentration of rifampicin in S. aureus; type: cell-based; details: Staphylococcus aureus, ATCC25923; 24 h, 37° C., turbidity; read-out: MIC, concentration required to inhibit growth
Protocol: Single colonies of S. aureus ATCC 25923 were suspended in 0.9% sterile saline to reach approximately 1×10^8 colony forming units (CFU)/mL (equivalent to an optical density of 0.08-0.12 at 600 nm). The bacterial suspension was further diluted 1/100 with broth. Bacterial suspension was added to 96-wells. […] The 96-well plate was incubated at 37° C. for 24 h. The plates were visually assessed for turbidity indicating growth of bacteria.

S. aureus biofilms = assay: In vitro biofilm study, crystal violet assay; type: cell-based, Staphylococcus aureus
Protocol: Bacterial suspension was further diluted 1/15 with broth and subsequently added to the wells of a 96-well plate. The outer wells were filled with PBS (200 μL) for hydration purposes and the second right column contained sterile broth (100 μL) to serve as negative control. The plate was wrapped in aluminium foil and incubated on a 3D rotating platform at 70 rpm at 37° C. for 24 h to grow biofilms. After 24 h incubation, turbid biofilms sitting at the bottom of wells could be assessed visually. The broth in the wells of the plate was aspired gently by a vacuum pump without disturbing the biofilms and the wells were washed with 0.9% Saline (100 μL) twice to remove nonadherent bacteria. […] The plate was wrapped in aluminium foil and incubated on a 3D rotating platform at 70 rpm at 37° C. for 24 h. After 24 h of exposure to the formulations, supernatants were removed gently without disturbing the biofilms by a vacuum pump and the wells were washed with 0.9% Saline (100 μL) twice. Biofilms were fixed by oven heating at 60° C. for 1 h. […] The biofilm biomass of S. aureus was quantified by spectrometry at 595 nm in 96 well plate reader.

RAW 264.7 macrophages = assay: Cellular cytotoxicity, MTT assay; type: cell-based, Murine; details: after 1 h incubation
Protocol: 100 μL of cell suspension at a density of 7000 cells per well was seeded in 96-well plate and incubated (37° C., 5% CO2) for 12 h to allow the attachment of cells. After incubation the supernatant was discarded and replaced with 200 μL of particle solution (in DMEM) at various concentrations (ranging from 10 to 100 μg/mL) and incubated for further 24 h. After incubation, the cells were washed with sterile PBS and 10 μL of MTT (3-(4,5-dimethylthiazol-2-yl)-2,5-diphenyltetrazolium bromide) solvent was added to each well prior to incubation for a further 4 h. Afterward, the supernatant was discarded, and the absorbance was read at OD=540 nm using a microplate reader.

Compound	MIC (S. aureus ATCC 25923) [µg/mL]	biofilm biomass remaining (S. aureus biofilms; exposure to 1 μg/mL of rifampicin) [%]	reduction in biofilm biomass (S. aureus biofilms; rifampicin 16 μg/mL, 24 h)	biofilm reduction (S. aureus biofilms; rifampicin 1 to 16 μg/mL, 24 h)	cellular viability (positive control) (RAW 264.7 macrophages)
CO[C@H]1/C=C/O[C@@]2(C)Oc3c(C)c(O)c4c(O)c(c(/C=N/N5CCN(C)CC5)c(O)c4c3C2=O)NC(=O)/C(C)=C\C=C\[C@H](C)[C@H](O)[C@@H](C)[C@@H](O)[C@@H](C)[C@H](OC(C)=O)[C@@H]1C [rifampicin]	< 0.0156	34	up to 82%	more than 50%	–
Triton-X	–	–	–	–	no cellular viability
